{"source": "patent US5466716A", "about": "“Liposomal trimethylsphingosine” (The Biomembrane Institute, priority 1994, dated 1995)", "key": {"protein kinase-C": {"test_system": "protein kinase-C", "details": "in vitro, Tamaoki & Nakano; cited from earlier work"}, "GMP-140": {"test_system": "GMP-140", "experiment": "GMP-140 expression on platelets (flow cytometry, mAb AC1.2)", "assay_type": "cell-based, human", "procedure": "FIGS. 11A and 11B depict results of representative experiments assessing the percentage of platelets capable of binding an anti-GMP-140 antibody following exposure to various agents. The percentage binding activity was determined in a flow cytometer. SPN is sphingosine; H-7 is 1-(5-isoquinolinylsulfonyl)-2-methylpiperazine; Cal is calphostin-C; TMS is trimethylsphingosine; and DMS is dimethylsphingosine.\nGMP-140 expression was determined by (i) flow cytometry with mAb AC1.2, which is directed to GMP-140 and obtained from Dr. Furie (Tufts Univ. Sch. Med., Boston, Mass.) and (ii) adhesion of HL60 cells on platelet-coated solid phase.\nA suspension of platelets (1×10^8 /ml) in Tyrode's buffer was preincubated with inhibitor at pH 7.2, 37° C., for 5 minutes, then supplemented with activator, either thrombin (final concentration 1 U/ml) or phorbol 12-myristate 13-acetate (PMA (final concentration 10^-7 M), and the mixture was incubated at 37° C. for 10 minutes. Platelets were fixed with an equal volume of 2% (w/v) paraformaldehyde in PBS and washed 2 times with PBS containing 1% (w/v) BSA.\nThe paraformaldehyde-fixed platelets were incubated with 50 μl of mAb AC1.2 (2.5 μg/ml) at room temperature for 30 minutes. Platelets were washed 2 times with PBS containing 1% (w/v) BSA, supplemented with 50 μl of fluorescein isothiocyanate-labeled goat anti-mouse Ig (purchased from Tago Co., Burlingame, Calif.), incubated at room temperature for 30 minutes and again washed 2 times with PBS containing 1% (w/v) BSA. As a negative control, paraformaldehyde-fixed platelets were incubated with mouse IgG instead of mAb AC1.2 and treated as described above.\nThe platelets were analyzed in an Epics flow cytometer (Coulter Corp.) with suitable gating. To calculate the inhibitory effect of various reagents, the mean fluorescence intensity of resting platelets (obtained on incubation of platelets without activator) was subtracted from the value for the activated platelet sample."}, "neutrophils [1]": {"test_system": "neutrophils", "experiment": "phagokinetic activity of neutrophils on gold sol-coated plates", "assay_type": "cell-based, human", "procedure": "The phagokinetic activity of neutrophils on gold sol-coated plates can be determined by a technique essentially as taught in Albrecht-Buehler (Cell, 11, 395, 1977). […] Thus, the inhibitory effect of TMS on phagokinetic activity is not dependent on cytotoxicity.\n.sctn. The area swept by neutrophils was determined in photographs of the\nmonolayers. The regions cleared by neutrophil movement were then cut out\nPhagokinetic activity was observed by tracing tracks of neutrophils moving on a glass substrate covered with gold colloid particles. The technique was described originally by Albrecht-Buehler, supra, using 3T3 and other cell lines. Briefly, 22×22 mm square glass coverslips (Corning Glass Works, Corning, N.Y.) were dipped for 1 min into 1% BSA prepared in Milli Q water. The BSA solution was prepared fresh each day and passed through 0.20 μm Nalgene filters (Nalgene Labware Division, Rochester, N.Y.).\nThe coverslip then was drained by touching a Kim-wipe paper towel to its edge, dipped into 100% ethanol and rapidly and completely dried in a 85° C. hot airstream. The coverslip was placed in a 3.5 cm Falcon plastic dish. Then 5.4 ml of AuCl4 H and 18 ml of 36.5 mM Na2 CO3 were added to 33 ml of distilled water and heated. Immediately after reaching the boiling point, 5.4 ml of 0.1% formaldehyde in water were added quickly and mixed. The suspension of gold particles forming a brownish color was distributed immediately onto the dish (2 ml each) and the coverslip was incubated for 2 hr at 37° C.\nParticle-coated coverslips were washed in PBS, then twice in RPMI 1640 and finally put in another 3.5 cm Falcon plastic dish containing 2 ml of RPMI 1640 with glutamate and pyruvate. The coverslips were stored at 4° C. and used within 24 hr after preparation.\nThe freshly-purified neutrophils (1×10^4 cells/plate) were added onto the colloid-coated coverslip. TMS and other effectors were added into the medium on the plate. As a control, the solvent of the effectors (50% ethanol) was added at an equal amount. At that concentration (0.1%), ethanol brought no significant effect on neutrophil activities. To observe cell recovery from exposure to the effectors, neutrophils (2×10^5 cells/ml) were pre-incubated at 37° C. with 12 μM of TMS, SPN and DMS, then distributed to the dish dropwise, diluting the effectors 200-fold. Incubation was conducted under 5% CO2 at 37° C. for 2 hr and terminated by adding 200 μl of 10% formaldehyde. Microscopic examination of each plate was performed with a Nikon microscope, connected to a Polaroid camera for recordings. Phagokinetic activity was measured by tracing the track of a neutrophil. The track was recorded with photographs, then the area was measured by cutting and weighing there swept area."}, "[2]": {"experiment": "neutrophil viability (trypan blue exclusion)", "assay_type": "cell-based, human", "details": "neutrophils, Table III, control 94", "procedure": "(§1) The viability was evaluated by trypan blue exclusion assay. The cell\n(§2) incubated at 37° C. for 10 min with effectors. The aliquot was\n(§3) mixed with an equal amount of trypan blue solution and immediately counte\n(§4) under a Nikon light microscope."}, "neutrophils [3]": {"test_system": "neutrophils", "experiment": "neutrophil transmigration through HUVEC monolayer", "assay_type": "cell-based, human", "details": "for neutrophil transmigration (number of cells transmigrated): Table II, control 100, 90 min", "procedure": "(§5) A characteristic of neutrophils is the ability to adhere to activiated EC's and to migrate through the EC monolayer into the vascular or extravascular matrix. The effect of TMS on neutrophil interactions with EC's and their subsequent trans-endothelial migration thereof can be monitored in vitro using human umbilical endothelial cells (HUVEC's) (Luscinskas et al., J. Imm., 146, 1617, 1991). Neutrophils are added to a HUVEC monolayer and neutrophil-HUVEC interactions are assessed microscopically following fixation, embedding and staining of monolayer sections.\nCross-sections (2 μm) of the collagen bed with HUVEC's and neutrophils\nwere observed using a Zeiss light microscope with KPL W10 ahd Ph2 Neoflua\n16 lenses. The number of cells transmigrated were counted for each view.\n(§6) HUVEC's and culture media were purchased from Cell Systems (Kirkland, Wash.). The cells were maintained and cultured as described in Luscinskas et al., supra, with some modifications. Briefly, HUVEC's were maintained in 10 ml tissue culture flasks on a collagen type I bed obtained from rat tail (Upstate Biotechnology Inc, Lake Placid, N.Y.) with CS-complete medium, CS-growth factor and CS-AF-1 (Cell Systems). Cells became confluent within 2 to 4 days when incubated in 5% CO2 at 37° C.\nFor the transmigration assay, thick gels were formed in 24-well tissue culture plates. Preparation of the gel solution was carried out at 4° C. Eight parts of collagen solution (Vitrogen 100, from bovine tendon which contained less than 5 ng/ml endotoxin; Celtrix Labs, Palo Alto, Calif.), one part of 10×RPMI and one part of alkaline solution (2.2 g NaHCO3 in 100 ml of 0.05N NaOH and 200 mM HEPES) were mixed gently and distributed at 0.7 ml/well. The solution was left for 4 hr at 37° C. to eliminate air bubbles, then allowed to gel in a 37° C. oven for 3 hr. The wells were washed with 1.0 ml of CS-complete medium with attachment factors at least 4 times and every 3 to 6 hr during further incubation at 37° C. in 5% CO2.\nHUVEC's at a passage level of less than 3 were detached from 10 ml tissue culture flasks with 3 ml of Trypsin-EDTA at 37° C. for 30 to 60 sec. Immediately, 3 ml of M199 with 20% heat-inactivated FCS was added. Cells were collected by centrifugation. The pellet was resuspended in 10 ml of CS-complete medium with attachment factors. Homogeneous cell suspensions were plated at 0.7 ml to each well and the plates were incubated for 3 hr at 37° C. The supernatant, which contains dead cells, was aspirated carefully and fresh complete medium with attachment factors was added.\nThe HUVEC monolayer in 24-well tissue culture plates were washed with M199 without FCS, then incubated with 1 ml/well of IL-1β (Boehringer Mannheim Biochemical Products, Indianapolis, Ind.) dissolved in M199 with 1% heat-inactivated FCS (HIFCS) at 10 U/ml. The plates were incubated at 37° C., 5% CO2 for 4 hr then washed gently with 1 ml of M199. The purified neutrophil suspension (1.5×10^6 cells/ml) in M199 containing 1% HIFCS was pre-incubated with TMS, or other effectors, for 10 min at 37° C. After aspirating the media in the well, 0.5 ml of the neutrophil suspension were added onto the HUVEC monolayer. The tissue culture plate was incubated for 90 min at 37° C.\nThe culture was terminated by gently aspirating the cell suspension, adding 1 ml of 10% formaldehyde in PBS and stored at 4° C. overnight for fixation. The edge of the collagen bed was cut with a small spatula along the wall 2 hr before removal from the well. The collagen bed, which has HUVEC's on the surface and transmigrated neutrophils within was embedded in paraffin, sectioned and followed by staining with hematoxylin-eosin for microscopic examination."}, "water solubility": {"experiment": "water solubility", "assay_type": "physicochemical", "details": "particularly at physiologic pH", "from_the_text": "For comparison purposes those same test cells also are exposed to sphingosine and N,N-dimethylsphingosine."}, "HUVEC's": {"test_system": "HUVEC's", "experiment": "morphologic damage to endothelial cells (HUVEC's)", "assay_type": "cell-based, human", "details": "staurosporine 2 μM, calphostin C 5 μM", "procedure": "as §5, §6\nThe HUVEC monolayer in 24-well tissue culture plates were washed with M199 without FCS, then incubated with 1 ml/well of IL-1β (Boehringer Mannheim Biochemical Products, Indianapolis, Ind.) dissolved in M199 with 1% heat-inactivated FCS (HIFCS) at 10 U/ml. The plates were incubated at 37° C., 5% CO2 for 4 hr then washed gently with 1 ml of M199. […]"}, "[4]": {"test_system": "phosphoinositide turnover", "experiment": "fMLP-induced phosphoinositide turnover in neutrophils (32P incorporation)", "assay_type": "cell-based, human", "details": "Table VI, 1 μM fMLP alone, control 100", "procedure": "Amount of ^32 P in PIP and PIP2 was measured using TLC separation. The spots on TLC plates were scraped off and the radioactivity therein was measured with a Beckman scintillation counter. Each spot was compared as to intensity with the identical spot of the control sample.\nAfter incubation, the cells were washed and resuspended in the same buffer at a concentration of 1×10^7 cells/ml. Each suspension (1 ml) then was pretreated with TMS, SPN or DMS, or equal volume of 50% ethanol, for 10 min at 37° C. Then keeping the same temperature, fMLP was added to a final concentration of 1.0 μM. Two minutes later, the reaction was terminated by adding 3.75 ml of chloroform/methanol (1:2) to each cell suspension, followed by sonication for 15 min. An additional 1.25 ml of chloroform, 1.25 ml of water and 50 μl of acetone were added and the total mixture was mixed and left overnight.\nFollowing centrifugation of the mixture, the phospholipids were extracted by Folch's partition method, taking the lower phase from the cell lysate. […] The TLC plate was developed with control phospholipids, in a solvent comprising chloroform/methanol/4M NaOH at a ratio of 45:35:10 and containing 0.1% CDTA (trans-1,2-diaminocyclohexane-N,N,N',N'-tetraacetic acid) for 65 min at 37° C. The bands were identified by staining the control phospholipids with primuline and visualization under ultraviolet light. Autoradiography was performed with Kodak diagnostic film GBX-2 (Rochester N.Y.) by exposing overnight at 37° C."}, "neutrophils [5]": {"test_system": "neutrophils", "experiment": "neutrophil viability (trypan blue exclusion)", "assay_type": "cell-based, human", "details": "Table V, 37° C., 10 min, in % (unit assumed)", "procedure": "as §1, §2, §3, §4"}, "[6]": {"details": "Homo sapiens, Neutrophil, 2 h, read-out: Area Swept"}, "[7]": {"details": "Homo sapiens, Neutrophil, 1.5 h, read-out: Number of Cells/View"}}, "data": [{"molecule": "CC1CNCCN1S(=O)(=O)c1cccc2cnccc12", "note": "(stereo not shown) [H-7, 1-(5-isoquinolinylsulfonyl)-2-methylpiperazine]", "values": [{"measurement": "concentration reported to inhibit protein kinase-C", "setting": "protein kinase-C", "result": 15, "unit": "µM"}, {"measurement": "inhibition of GMP-140 expression", "setting": "GMP-140; PMA-induced, FIG. 11B", "result": "Neither SPN nor H-7 showed inhibition"}, {"measurement": "inhibition of GMP-140 expression", "setting": "GMP-140; thrombin-induced, FIG. 11A", "result": "no inhibition"}, {"measurement": "activity at 200 µM", "setting": "neutrophils [1]; [6]", "result": "27 ± 6", "unit": "%"}, {"measurement": "viability at 10 min, 200 µM", "setting": "[2]; 200 μM", "result": "79 ± 7.1", "unit": "%"}, {"measurement": "activity at 200 µM", "setting": "neutrophils [3]; [7]", "result": "38 ± 12", "unit": "%"}]}, {"molecule": "CCCCCCCCCCCCC/C=C/[C@@H](O)[C@H](CO)NC", "note": "[N-monomethylsphingosine]", "values": [{"measurement": "water solubility", "setting": "water solubility", "result": "less water soluble"}]}, {"molecule": "CN[C@@H]1C[C@H]2O[C@@](C)([C@@H]1OC)n1c3ccccc3c3c4c(c5c6ccccc6n2c5c31)C(=O)NC4", "note": "[Staurosporine]", "values": [{"measurement": "activity at 0.2 µM", "setting": "neutrophils [1]; [6]", "result": "13 ± 12", "unit": "%"}, {"measurement": "morphologic damage to EC's", "setting": "HUVEC's", "result": "striking morphologic damage to EC's"}, {"measurement": "viability at 10 min, 2 µM", "setting": "[2]; 2 μM", "result": "83 ± 3.6", "unit": "%"}, {"measurement": "activity at 2 µM", "setting": "neutrophils [3]; [7]", "result": "52 ± 25", "unit": "%"}]}, {"molecule": "CSCC[C@H](NC=O)C(=O)N[C@@H](CC(C)C)C(=O)N[C@@H](Cc1ccccc1)C(=O)O", "note": "[fMLP, formyl-methionyl-leucyl-phenylalanine, reference compound]", "values": [{"measurement": "PIP labeling", "setting": "[4]", "result": "182 ± 39"}]}, {"molecule": "Ceramide", "values": [{"measurement": "Area Swept", "setting": "neutrophils [1]; Table I, 4.5 μM, control 100, 120 min", "result": "109 ± 25", "unit": "%"}, {"measurement": "Viability of neutrophils", "setting": "neutrophils [5]; 5 μM", "result": "98 ± 2"}, {"measurement": "Viability of neutrophils", "setting": "neutrophils [5]; 15 μM", "result": "96 ± 1"}, {"measurement": "Viability of neutrophils", "setting": "neutrophils [5]; 45 μM", "result": "91 ± 3"}, {"measurement": "neutrophil transmigration (number of cells transmigrated)", "setting": "neutrophils [3]; 4 μM", "result": "92 ± 24"}, {"measurement": "neutrophil transmigration (number of cells transmigrated)", "setting": "neutrophils [3]; 15 μM", "result": "87 ± 27"}, {"measurement": "neutrophil transmigration (number of cells transmigrated)", "setting": "neutrophils [3]; 45 μM", "result": "83 ± 16"}]}]}
